The structures appear in SMILES notation. pIC50: −log10 of the molar value. Several values for one entry are separate records, joined by “and”; a condition that tells them apart may be missing. Equal entries are not always repeated.

Chain of Beta-lactamase TEM (P62593 whole entry): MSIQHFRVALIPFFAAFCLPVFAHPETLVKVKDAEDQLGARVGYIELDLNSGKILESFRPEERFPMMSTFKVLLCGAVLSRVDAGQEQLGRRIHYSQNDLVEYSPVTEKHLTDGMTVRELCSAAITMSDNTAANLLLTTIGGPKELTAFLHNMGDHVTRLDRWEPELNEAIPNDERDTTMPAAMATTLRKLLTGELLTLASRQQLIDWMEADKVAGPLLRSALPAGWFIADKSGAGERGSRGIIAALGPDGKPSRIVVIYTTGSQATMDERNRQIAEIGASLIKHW

One assay deals with Beta-lactamase (Escherichia coli (strain K12), UniProt P00811). As to the kind of experiment: Cell Free Inhibition Assay. The settings on record: pH 7; 37 °C. The procedure: (§1) Assays are performed with beta -lactamases expressed in the pET system (Novagen, San Diego, Calif.) without signal peptides. They contain an N-terminal hexa-Histidine tag that is used for purification on Ni-NTA (Qiagen, Hilden, Germany). The compounds are prepared as 50 mM stocks in DMSO and diluted into buffer P1 (50 mM phosphate, pH 7) to a final concentration of 10% DMSO. All further dilutions are done in P2 (P1 with 10% DMSO). Enzyme and compound dilutions are pre-incubated for 10 min at 37 C. and the reaction is started with the addition of pre-warmed (37 C.) […]. The change in absorption at 490 nm is followed at 37 C. for 10 min with 30 s intervals.
Chain of Beta-lactamase (P00811 whole entry): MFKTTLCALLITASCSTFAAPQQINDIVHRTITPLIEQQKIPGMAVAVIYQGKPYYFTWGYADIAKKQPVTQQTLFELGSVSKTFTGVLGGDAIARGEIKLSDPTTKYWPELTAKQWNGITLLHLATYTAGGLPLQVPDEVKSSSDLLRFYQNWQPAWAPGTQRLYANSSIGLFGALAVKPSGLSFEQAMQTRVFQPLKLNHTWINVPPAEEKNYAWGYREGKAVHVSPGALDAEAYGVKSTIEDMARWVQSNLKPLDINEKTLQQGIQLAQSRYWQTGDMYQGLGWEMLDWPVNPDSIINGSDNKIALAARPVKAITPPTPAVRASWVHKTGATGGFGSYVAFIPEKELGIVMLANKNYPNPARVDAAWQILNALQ
As to `O=CC=C1O[C@@H]2CC(=O)N2C1(CC=CCO)C(=O)OCc1ccccc1` (single isomer, unassigned) [US9120808, Example 9], the pIC50 was 3.94 and 4.85.

As to `O=C(O)C=C1O[C@@H]2CC(=O)N2C1(C/C=C/c1ccccc1)C(=O)OCc1ccccc1` (single isomer, unassigned) [US9120808, Example 28], the pIC50 was 5.22 and 4.93.

Turning to `COC(=O)C1(C/C=C/c2ccccc2)C(=CC(=O)O)O[C@@H]2CC(=O)N21` (single isomer, unassigned) [US9120808, Example 36], the pIC50 is 4.39 and 5.38.

Turning to `O=C1OC(CI)CC1=C1O[C@@H]2CC(=O)N2C1C(=O)OCc1ccccc1` (single isomer, unassigned) [US9120808, Example 42], the pIC50 is 6.54 and 6.41.

For `C=CCC(C=O)=C1O[C@@H]2CC(=O)N2C1C(=O)OCc1ccccc1` (some centres not stated) [US9120808, Example 1], the pIC50 is 4.98.

For the compound `C=CCC1(C(=O)OCc2ccccc2)C(=CC=O)O[C@@H]2CC(=O)N21` (some centres not stated) [US9120808, Example 2], the pIC50 is 4.23.

As for `C=CCC(C=O)=C1O[C@@H]2CC(=O)N2C1(CC=C)C(=O)OCc1ccccc1` (some centres not stated) [US9120808, Example 3], the pIC50 is 4.02.

`O=CC(CC=CCO)=C1O[C@@H]2CC(=O)N2C1C(=O)OCc1ccccc1` (some centres not stated) [US9120808, Example 7] gave a pIC50 of 5.27.

Turning to `CC(=O)OCC=CCC(C=O)=C1O[C@@H]2CC(=O)N2C1C(=O)OCc1ccccc1` (some centres not stated) [US9120808, Example 10], the pIC50 was 4.79.

The compound `C=CCC(C=O)=C1O[C@@H]2CC(=O)N2C1C(=O)OC` (some centres not stated) [US9120808, Example 16] had a pIC50 of 6.03.

On to `C=CCC1(C(=O)OC)C(=CC=O)O[C@@H]2CC(=O)N21` (some centres not stated) [US9120808, Example 17], for which the pIC50 was 4.44.

For `C=CCC(C(=O)O)=C1O[C@@H]2CC(=O)N2C1C(=O)OCc1ccccc1` (some centres not stated) [US9120808, Example 24], the pIC50 was 5.30.

With `C=CCC(C(=O)O)=C1O[C@@H]2CC(=O)N2C1C(=O)OC` (some centres not stated) [US9120808, Example 32], the pIC50 is 5.54.

`CC1CC(=C2O[C@@H]3CC(=O)N3C2C(=O)O)C(=O)O1` (some centres not stated) [US9120808, Example 50]: the pIC50 is 4.57.

In turn, `CCCC(C(=O)O)=C1O[C@@H]2CC(=O)N2C1C(=O)O` (some centres not stated) [US9120808, Example 51] had a negative logarithm of the IC50 (pIC50) of 3.38.

For `COC(=O)C1C(=C(CCCc2ccccc2)C(=O)O)O[C@@H]2CC(=O)N12` (some centres not stated) [US9120808, Example 53], the pIC50 was 6.27.

As to `CCCC(C(=O)O)=C1O[C@@H]2CC(=O)N2C1C(=O)OC` (some centres not stated) [US9120808, Example 54], the pIC50 is 5.47.

`COC(=O)C(CCCc1ccccc1)=C1O[C@@H]2CC(=O)N2C1C(=O)OC` (some centres not stated) [US9120808, Example 57] gave a pIC50 of 5.27.

`O=C(O)C(CC=CCN(Cc1ccccc1)C(=O)OCc1ccccc1)=C1O[C@@H]2CC(=O)N2C1C(=O)OCc1ccccc1` (some centres not stated) [US9120808, Example 58] had a negative logarithm of the IC50 (pIC50) of 5.35.

As to `O=C(OCc1ccccc1)C1C(=C2COC(CI)C2)O[C@@H]2CC(=O)N12` (some centres not stated) [US9120808, Example 59], the pIC50 is 5.19.

Another assay deals with Beta-lactamase TEM (Escherichia coli, UniProt P62593). As to the kind of experiment: Cell Free Inhibition Assay. The settings on record: pH 7; 37 °C. The procedure:
as §1
As to `CCCC(CO)=C1O[C@@H]2CC(=O)N2C1C(=O)O` (some centres not stated) [US9120808, Example 55], the pIC50 is 3.93.

`CCCC1(C(=O)O)/C(=C/CO)O[C@@H]2CC(=O)N21` (some centres not stated) [US9120808, Example 56] showed a negative-log IC50 (pIC50) of 4.75.

As usually defined, the pIC50 is the negative decadic logarithm of the IC50, by convention in mol/L. Lower therefore signals a large IC50.

The values above are taken from BindingDB's records for patent US9120808 (Nabriva Therapeutics, 2015).
